Measured values reported in patent publication US11559527B2 (priority 2017, dated 2023).

Tests used:
Type in all cases: cell-based, Human
Wnt signaling = test: Luciferase reporter assay MCF7-GFP-TCF/LEF(luc); settings: 50 μM, 2 and 5 days
Text: (§1) Mitochondrial fusion and fission may also have an impact in signaling pathways that regulate stem cell proliferation and survival. […] A range of reporter MCF7-GFP cell lines were generated, including MCF7-GFP-GLI(luc), MCF7-GFP-Rbp/Jk(luc), MCF7-GFP-SMAD(luc) and MCF7-GFP-TCF/LEF(luc), to assess Hedgehog signaling, Notch signaling, TGFβ signaling, and Wnt signaling, respectively. […] The data is shown in the four data plots in FIG. 9.
(§2) LUCIFERASE ASSAY: The Cignal Lenti reporter assay (luc) was used to monitor the activity of several signalling pathways in MCF7-GFP cells as explained previously. Luciferase Assay System (E1501, Promega) was performed according to manufacturer's instructions. 1×10^4 MCF7 […] were seeded in black-walled 96 well plates. When cells were attached, drug treatments were added for 18, 48 hours and 5 days. After treatment, Luciferase Assay was performed according to manufacturer's instructions and light signal was acquired in the Xenogen VivoVision IVIS Lumina. Results were normalized by SRB staining of cells grown in 96-well plates in parallel.
(§3) SULFORHODAMINE B (SRB) ASSAY: SRB (S9012, Sigma) measures total biomass by staining cellular proteins. […] Absorbance was spectrophotometrically measured at 562 nm in a FluoStar Omega plate reader (BMG Labtech). […]

MCF7 cells = test: Reactive oxygen species (CM-H2DCFDA, flow cytometry)
Text: Inhibition of the mitochondrial fission impacts on other mitochondrial processes, such as mitochondrial metabolism and general and mitochondrial oxidative stress. To confirm, MCF7 cells were stained with MitoSOX and CM-H2DCFDA, and mitochondrial superoxide and total ROS were quantified by flow cytometry. […] Whereas the increase in general ROS goes in line with the increase in mitochondrial content, the boost in the levels of mitochondrial superoxide in mDIV1-treated cells is actually bigger than the observed increased mitochondrial content.
LEVELS OF REACTIVE OXYGEN SPECIES AND MITOCHONDRIAL SUPEROXIDE: For both assays, 2×10^5 MCF7 cells were seeded in 35 mm plates. […] Reactive oxygen species (ROS) production was measured using CM-H2DCFDA (C6827, Invitrogen). Briefly, cells were incubated for 20 minutes at 37° C. with 1 μM CM-H2DCFDA diluted in PBS and then placed in complete media for 20 minutes at 37° C. in the dark, to render the dye fluorescent, according to the manufacturer. Mitochondrial superoxide was measured using MitoSOX Red Mitochondrial Superoxide Indicator (M36008, ThermoFisher Scientific). […] ROS signal and MitoSOX signal was quantified as mean fluorescent intensity of the viable cell population in a Fortessa flow cytometer (BD Bioscience). Results were analysed using FlowJo software.

TGFβ signaling = test: Luciferase reporter assay MCF7-GFP-SMAD(luc); settings: 50 μM, 2 and 5 days
Text: as §1, §2, §3

## COc1cc(-n2c(S)nc3ccccc3c2=O)c(Cl)cc1Cl [mDIVI-1, 3-(2,4-Dichloro-5-methoxyphenyl)-2-sulfanyl-4(3H)-quinazolinone]
Wnt signaling
  Wnt/TCF pathway luciferase activity: inhibition
MCF7 cells; 5 days of treatment
  production of total ROS: slight trend toward an increase
MCF7 cells; after exposure to mDIVI-1
  general oxidative stress levels: did not change
TGFβ signaling
  TGFβ/SMAD pathway luciferase activity: inhibition
